In US12729211B2, “Gold(III) compounds and cancer cell-selective modulation of mitochondrial respiration and metabolism” (University of Kentucky Research Foundation, priority 2020, dated 2026):

What was measured:
MDA-MB-468 [1] = experiment: MMP by JC-1 FACS, MDA-MB-468; type: cell-based
Source text: The MMP depolarizing effect on the panel of TBNCs and healthy models was examined with the use of flow assisted cell sorting (FACS) (FIG. 19A-C). JC-1 was used, a cationic, fluorometric dye that is dependent on the negative charge of the MMP. It is represented as J-aggregates (red fluorescence) when it accumulates into the mitochondria and J-monomers (green fluorescence) when it is located outside the mitochondrial membrane due to loss of the electrochemical gradient.
Next, the effect of MMP was examined when pretreated with MitoTEMPO (1 μM, 2 hours) (FIG. 34).

MDA-MB-468 [2] = experiment: Mitochondrial ROS (mtROS) by MitoSOX FACS; type: cell-based; details: MitoTEMPO 1 μM 2 hours, then 2a 10 μM 2 hours
Source text: Second, to solidify the specificity of ROS, the use of MitoSOX was employed, which is a mitochondrial targeting dye that specifically reacts with superoxide.
First, the effect of pre-treatment on mtROS production was examined using flow cytometry. Since MitoTEMPO is a specific scavenger for superoxide, the potential to alleviate mitochondrial oxidative damage was investigated by scavenging mtROS once produced. […] In this experiment, Rotenone, a mitochondrial complex I inhibitor, was used as a positive control.

| Molecule | loss of MMP, MitoTEMPO pretreatment (MDA-MB-468 [1]) [%] | loss of MMP, no pretreatment (MDA-MB-468 [1]) [%] | decrease in mtROS versus the non-pretreated group (MDA-MB-468 [2]) [fold] |
| --- | --- | --- | --- |
| Carbonyl cyanide m-chlorophenyl hydrazine [CCCP] | 84 | 95 | – |
| CC1(C)CC(NC(=O)C[P+](c2ccccc2)(c2ccccc2)c2ccccc2)CC(C)(C)N1[O] [MitoTEMPO] | – | – | 1.8 |
